# Data: patent US11260091B2, “Red seaweed extracts, formulations and anti-microbial uses thereof” (OCEANS LTD., priority 2017, dated 2022)
# Experiments:
# Test in all cases: Liquid phase testing (bacterial growth, OD600)
# [1] = test system: resistant Staphylococcus aureus; format: cell-based; conditions: S. aureus, 30 μg/ml positive control
# Procedure: (§1) Stock solutions of extracts were prepared in dimethylsulfoxide (DMSO) at 10 mg/ml and stored in 200 μl aliquots at −20° C. until used. Two pathological agents were assessed: resistant Staphylococcus aureus and resistant Staphylococcus pseudointermedius. Three concentrations of each extract (5, 10 and 25 μg/ml) were evaluated in triplicate for each trial. Vehicle alone served as negative control. […] For selected samples, studies were repeated at 100 and 50 μg/ml.
# (§2) A standard micro or mini-prep chase study was conducted. Briefly, liquid media was inoculated with a starting bolus of 0.01% bacteria and spiked with test extract at the study concentrations. Samples were incubated (shaking, 37° C.) overnight for 16 hours and bacterial growth enumerated by UV spectrometry in quadruplicate.
# [2] = test system: P. acnes; format: cell-based, Propionibacterium acnes; conditions: 30 μg/ml positive control
# [3] = test system: resistant Staphylococcus pseudointermedius; format: cell-based, Staphylococcus pseudintermedius; conditions: S. pseudo, 30 μg/ml positive control
# Procedure: as §1, §2
# [4] = higher concentration study (Table 4)
compound,measurement,setting,value
"O=C(N[C@H](CO)[C@H](O)c1ccc([N+](=O)[O-])cc1)C(Cl)Cl [CAP, Chloramphenicol]",OD600,[1]; Table 2,0.023
same,OD600,[1]; [4],0.002
same,OD600,[2]; Table 2,0.005
same,OD600,[2]; [4],0.000
same,OD600,[3]; Table 2,0.021
same,OD600,[3]; [4],0.004
